The record followed here is US20040084383A1, “Method to inhibit growth of microorganisms in aqueous systems and on substrates using a persulfate and a bromide” (BUCKMAN LABORATORIES INTERNATIONAL, INC., priority 2002, published 2004).

For the experiment, the system named is Pseudomonas aeruginosa. Nature of the experiment: Antimicrobial efficacy in inoculated pulp slurry (24 hr incubation, plated in nutrient agar, cfu/ml counted). Format: cell-based. As to the method:
A concentrated solution of active biocidal composition was prepared by mixing 44% (w/v) of aqueous ammonium persulfate with 40% (w/v) aqueous sodium bromide in equal volume. The final mixture contains 22% ammonium persulfate and 20% NaBr at pH 2.2. The molar ratio of the components was 1:2 for (NH4)2S2O8:NaBr. Four hours after mixing, the concentrated solution was diluted with water to contain 5% ammonium persulfate. This diluted solution (5%) was then added to 50 ml pulp slurry to give a biocidal concentration of 10 ppm (as ammonium persulfate) in pulp slurry. The pulp slurry was then inoculated with 3×10^6 cells/ml of Pseudomonas aeruginosa, incubated at room temperature for 24 hr, plated in nutrient agar. The colony forming units per milliliter (cfu/ml) was counted and compared with each individual component acting alone.
The pulp slurry contains white bleached dry pulp at 5 g/L; cationic starch at 10 bl/ton dry pulp; CaCO3 at 300 bl/ton dry pulp; ASA size at 3-4 lb/ton dry pulp; retention aids at 0.5-1.0 bl/ton dry pulp; defoamer at 250 g/ton dry pulp. The pulp slurry has a consistency of about 0.5 to 0.7%. The final pH of the pulp substrate after autoclave is about 8.0. […] Neither component acting alone provides significant antimicrobial efficacy.
The antimicrobial efficacy of the mixture containing 22% (w/v) aqueous ammonium persulfate and 20% (w/v) aqueous NaBr was tested at different times after mixing, aging times. The mixture preparation, at pH 2.2, and the test system are the same as that described in Example 1. At each time, a portion of the mixture was taken and diluted to 5% (as ammonium persulfate). The diluted solution was then added to pulp slurry to give a final concentration of 5, 10, 20, and 40 ppm (as ammonium persulfate) in pulp slurry. […] At only 5 ppm level, it achieved 2.5 logs reduction, which represents greater than 99% kill. […] It requires about 4 hr to provide significant activity. At about 8 hr after mixing, the mixed solution reached the maximum activity. The biocidal efficacy of the mixture was maintained or stabilized for at least 7 days.
Three mixtures were generated. Mixture #1 was prepared by mixing 22% (NH4)2S2O8 with 20% NaBr in equal volume. The final concentrations in mixture #1 were 11% (NH4)2S2O8 and 10% NaBr. Mixture #2 was made by mixing 33% (NH4)2S2O8 with 30% NaBr in equal volume. The final concentrations in Mixture #2 were 16.5% (NH4)2S2O8 and 15% NaBr. Mixture #3 was prepared by mixing 44% (NH4)2S2O8 with 40% NaBr in equal volume. In the final solution, Mixture #3 contains 22% (NH4)2S2O8 and 20% NaBr. All three mixtures, having a pH 2.2, were tested at a dosage of 20 ppm, and at 1, 2, 4, and 8 hr after mixing for their antimicrobial activity in the pulp slurry described in Example 1. […]

[1] abbreviates: 1000 ppm as pure compound in pulp slurry.
Setting [2] is: 100 ppm as pure compound in pulp slurry.

For the compound `[Br-].[Na+]` [NaBr, sodium bromide], under setting [1], the CFU/ml is given as 4.2 × 10^6 CFU/ml and the “Log Reduction” value amounted to 0.00.
As for `N.N.O=S(=O)(O)OOS(=O)(=O)O` [(NH4)2S2O8, ammonium persulfate], under setting [2], the CFU/ml is listed as 4.5 × 10^5 CFU/ml and the “Log Reduction” value is 0.97.
